Assay results: ChEMBL document CHEMBL1149706, “Discovering benzamide derivatives as glycogen phosphorylase inhibitors and their binding site at the enzyme” (Bioorg Med Chem, 2007)

Assay: Inhibition of rabbit muscle GPa
Set-up: species or system Oryctolagus cuniculus

| IC50 [µM] | Compound |
| --- | --- |
| 269 | O=C(Nc1nncs1)c1ccc(C(=O)Nc2nncs2)cc1 |
| 30.9 | Cn1ccnc1Sc1cc(C(=O)Nc2cccc(F)c2)c(N)cc1F |
| 337 | O=C(Nc1nccs1)c1ccc(C(=O)Nc2nccs2)cc1 |
| 78.5 | O=C(CN1CCN(c2ccccc2F)CC1)Nc1cccc(C(F)(F)F)c1 |
| 46.1 | COc1ccccc1N1CCN(CC(=O)Nc2cccc(C(F)(F)F)c2)CC1 |
| 153 | Cn1ccnc1Sc1cc(C(=O)NCc2ccccc2)c(N)cc1F |
| 95.3 | Cn1ccnc1Sc1cc(C(=O)Nc2ccccc2N)c(N)cc1F |
| 2.68 | Cn1ccnc1Sc1cc(C(=O)Nc2cccc(N)c2)c(N)cc1F |
| 9.87 | Cn1ccnc1Sc1cc(C(=O)Nc2cccc(C#N)c2)c(N)cc1F |
| 91.1 | Cn1ccnc1Sc1cc(C(=O)Nc2ccc(N)cc2)c(N)cc1F |

Second part, the compound before the results:

| Compound | IC50 [µM] |
| --- | --- |
| COc1cccc(NC(=O)c2cc(Sc3nccn3C)c(F)cc2N)c1 | 166 |
| O=C(Nc1ccccn1)c1cccc(C(=O)Nc2ccccn2)c1 | 57.6 |
| O=C(Nc1ccccn1)c1cccc(C(=O)Nc2ccccn2)n1 | 425 |
| Cn1ccnc1Sc1cc(C(=O)Nc2ccccc2)c(N)cc1F | 215 |
| Cn1ccnc1Sc1cc(C(=O)Nc2ccc(C#N)cc2)c(N)cc1F | 96.1 |
| Cn1ccnc1Sc1cc(C(=O)Nc2cccc(C(F)(F)F)c2)c(N)cc1F | 8.95 |
| COc1ccccc1NC(=O)c1cc(Sc2nccn2C)c(F)cc1N | 41.8 |
| O=C(CN1CCN(c2ccccc2)CC1)Nc1nccs1 | 96.9 |
| COc1ccc(NC(=O)c2cc(Sc3nccn3C)c(F)cc2N)cc1 | 107 |
| O=C(CN1CCN(c2ccccc2F)CC1)Nc1nccs1 | 35.8 |
| Cc1ccc(NC(=O)c2cc(Sc3nccn3C)c(F)cc2N)cc1 | 70.1 |
| Cn1ccnc1Sc1cc(C(=O)Nc2ccccc2C#N)c(N)cc1F | 75.9 |
